Source: patent US7811797B2, “α-isomaltosylglucosaccharide-forming enzyme, process and uses of the same” (Kabushiki Kaisha Hayashibara Seibutsu Kagaku Kenkyujo, priority 2000, dated 2010)

Assays:
[1] = test system: Small intestinal mucosal enzyme
Amylopsin = molecular target: T1, Amylopsin (Homo sapiens, UniProt P04746)
T1 sequence (P04746 16-511): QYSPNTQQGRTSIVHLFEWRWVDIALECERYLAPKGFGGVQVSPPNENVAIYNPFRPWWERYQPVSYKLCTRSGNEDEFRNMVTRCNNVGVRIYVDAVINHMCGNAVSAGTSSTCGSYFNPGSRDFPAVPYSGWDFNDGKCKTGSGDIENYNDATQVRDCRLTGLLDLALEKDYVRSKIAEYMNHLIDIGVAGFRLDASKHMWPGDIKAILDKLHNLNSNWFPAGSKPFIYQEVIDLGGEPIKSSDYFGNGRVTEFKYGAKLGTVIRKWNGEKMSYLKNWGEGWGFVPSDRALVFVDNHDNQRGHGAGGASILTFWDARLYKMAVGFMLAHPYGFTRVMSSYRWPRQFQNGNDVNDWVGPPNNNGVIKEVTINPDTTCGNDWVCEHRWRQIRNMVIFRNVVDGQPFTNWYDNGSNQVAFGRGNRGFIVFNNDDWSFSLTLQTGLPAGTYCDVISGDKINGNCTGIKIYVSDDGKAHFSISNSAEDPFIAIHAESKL

[2] = pH stability of cyclotetrasaccharide solution; type: physicochemical; settings: 4% (w/v), 100° C. for 24 hours; for Purity (%) after heating: HPLC
Method: Eight milliliters of each solution was placed in a glass test tube, followed by sealing the test tube and heating the solution at 100° C. for 24 hours. After cooling, each solution was measured for coloration degree and determined for purity on HPLC. The coloration degree was evaluated based on the absorbance in a cell with a 1-cm light pass at a wavelength of 480 nm.

[3] = Amino carbonyl reaction with glycine; type: physicochemical; settings: 10% (w/v) with 1% (w/v) glycine, pH 7.0, 100° C.
Method: Four milliliters of the resulting solution were placed in a glass test tube, sealed, and heated at 100° C. for 30 to 90 min. After allowing to stand for cooling at ambient temperature, each of the resulting solutions was measured for coloration degree to examine on their amino carbonyl reactivity. The coloration degree was evaluated based on the absorbance in a cell with 1-cm light pass at a wavelength of 480 nm.

[4] = test system: Bacteroides vulgatus JCM 5826; experiment: Assimilation test, Bacteroides vulgatus; type: cell-based; settings: PYF medium with 0.5% saccharide, 37° C., four days, anaerobic
mice = experiment: Acute toxicity test, oral administration; type: in vivo
From the text: Based on this, the LD50 of cyclotetrasaccharide was at least 50 g/kg mouse body weight, though the data were not so accurate.

[5] = test system: α-isomaltosylglucosaccharide-forming enzyme; experiment: Transfer-acceptor specificity, Enzyme of Strain C9; type: biochemical, Bacillus globisporus C9; settings: acceptor 1.6%, PINE-DEX #100 donor 4%, one unit/g donor, 30° C., pH 6.0, 24 hours
Procedure, shortened: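 Each candidate acceptor at 1.6% was combined with 4% partial starch hydrolysate donor and 1 unit/g donor (d.s.b.) of purified enzyme. Incubation ran 24 h at 30 °C, pH 6.0 for the C9, C11 and N75 enzymes and pH 8.4 for A19. Transfer products were detected by GLC for mono- and disaccharide acceptors and HPLC for trisaccharide acceptors.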

Which “Decomposition percentage (%) by digestive enzyme” value [1] does the source give for OCC1OC2OCC3O[C@H](O[C@H]4C(O)C(CO)OC(OCC5O[C@H](O[C@@H](C1O)C2O)C(O)C(O)[C@@H]5O)C4O)C(O)C(O)[C@@H]3O (stereo partly drawn) [Cyclotetrasaccharide, cyclo{→6)-α-D-glucopyranosyl-(1→3)-α-D-glucopyranosyl-(1→6)-α-D-glucopyranosyl-(1→3)-α-D-glucopyransoyl-(1→}] here?
The value was 0.74%.

What about the “digestibility relative to that of maltitol” value [1] of the same compound?
The value was “⅕”.

And the “Decomposition percentage (%) by digestive enzyme” value (Amylopsin)?
Its value is 0.0%.

And the “Coloration degree (A480 nm)” value ([2]; pH 2.0 (Acetate buffer))?
The value was 0.00 A480 nm.

And the “Purity (%) after heating” value ([2]; pH 2.0 (Acetate buffer))?
Its value is 93%.

And the “Coloration degree (A480 nm)” value ([2]; pH 3.0 (Acetate buffer))?
Its value is 0.00 A480 nm.

What about the “Purity (%) after heating” value ([2]; pH 3.0 (Acetate buffer)) of the same compound?
The value was 100%.

What about the “Coloration degree (A480 nm)” value ([2]; pH 4.0 (Acetate buffer)) of the same compound?
The value was 0.00 A480 nm.

What about the “Purity (%) after heating” value ([2]; pH 4.0 (Acetate buffer)) of the same compound?
The value was 100%.

And the “Coloration degree (A480 nm)” value ([2]; pH 5.0 (Acetate buffer))?
The value was 0.00 A480 nm.

And the “Purity (%) after heating” value ([2]; pH 5.0 (Acetate buffer))?
Its value is 100%.

What about the “Coloration degree (A480 nm)” value ([2]; pH 6.0 (Tris-HCl buffer)) of the same compound?
Its value is 0.00 A480 nm.

What about the “Purity (%) after heating” value ([2]; pH 6.0 (Tris-HCl buffer)) of the same compound?
The value was 100%.

And the “Coloration degree (A480 nm)” value ([2]; pH 7.0 (Tris-HCl buffer))?
The value was 0.00 A480 nm.

And the “Purity (%) after heating” value ([2]; pH 7.0 (Tris-HCl buffer))?
The value was 100%.

And the “Coloration degree (A480 nm)” value ([2]; pH 8.0 (Tris-HCl buffer))?
The value was 0.00 A480 nm.

What about the “Purity (%) after heating” value ([2]; pH 8.0 (Tris-HCl buffer)) of the same compound?
The value was 100%.

What about the “Coloration degree (A480 nm)” value ([2]; pH 9.0 (Ammonium buffer)) of the same compound?
Its value is 0.00 A480 nm.

What about the “Purity (%) after heating” value ([2]; pH 9.0 (Ammonium buffer)) of the same compound?
The value was 100%.

And the “Coloration degree (A480 nm)” value ([2]; pH 10.0 (Ammonium buffer))?
The value was 0.00 A480 nm.

And the “Purity (%) after heating” value ([2]; pH 10.0 (Ammonium buffer))?
The value was 100%.

And the “Coloration degree (A480 nm)” value ([3]; heating time 0 min)?
The value was 0.00 A480 nm.

What about the “Coloration degree (A480 nm)” value ([3]; heating time 30 min) of the same compound?
The value was 0.00 A480 nm.

What about the “Coloration degree (A480 nm)” value ([3]; heating time 60 min) of the same compound?
The value was 0.00 A480 nm.

And the “Coloration degree (A480 nm)” value ([3]; heating time 90 min)?
The value was 0.00 A480 nm.

And the Assimilability [4]?
Its Assimilability is “− (judged negative (−) when the post culture had a pH of 6.0 or higher)”.

What about the death of mice (mice; highest possible dose) of the same compound?
The death of mice was “did not induce death of mice”.

And the LD50 (mice; mice, data not so accurate)?
The LD50 was “at least 50 g/kg mouse body weight”.

Which “Product of transferring reaction, Enzyme of Strain C9” value [5] does the source give for OC[C@@H](O)[C@@H](O[C@H]1O[C@H](CO)[C@@H](O)[C@H](O)[C@H]1O)[C@H](O)[C@@H](O)CO [Maltitol, reference compound] here?
Its value is “++ (a saccharide-transferred product was detected in an amount over ten percent through transfer reaction to acceptor)”.
